Some test systems named below: DLD-1 colon; DMS 273 small cell lung; HOP-18 NSCLC; P388 leukemia; P388/ADR leukemia; SN12K1 renal; RXF-631 renal.
What all share (assay): NCI tumour cell line growth inhibition, 48 h

Several values for one entry are separate records, joined by “and”; a condition that tells them apart may be missing. Equal values may be shown once.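 These data come from cells grown in 96-well plates and exposed to compound for 48 hours at five concentrations. GI50: concentration for 50% inhibition of growth. TGI is the concentration that stops growth completely.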

Experimental findings from PubChem BioAssay (NCI) are described below.

With `O=P(NCCCO)(OCc1ccccc1)N(CCCl)CCCl` (stereo not given), the TGI in the experiment with DLD-1 colon was more than 31.6 µM; with DMS 273 small cell lung, more than 100 µM; with HOP-18 NSCLC it was more than 100 µM; with P388 leukemia, more than 100 µM; with P388/ADR leukemia, more than 100 µM; in the experiment on SN12K1 renal, more than 100 µM.

For `C#C[C@]1(O)CC[C@H]2[C@@H]3CCc4cc(O)ccc4[C@H]3CC[C@@]21C`, the TGI is 60.7 µM in the experiment with DLD-1 colon and more than 100 µM in the experiment with HOP-18 NSCLC.

On to `COc1ccc(CCn2cncn2)cc1`, for which the TGI with DLD-1 colon, in the experiment on DMS 273 small cell lung and in the experiment with RXF-631 renal was more than 100 µM in each case.

On to `C=C1C(O)C2(O)OCC34C(CC5C(C)=CC(=O)C(O)C5(C)C23)OC(=O)C(OC(=O)C/C=C/CCCCCCCC)C14` (stereo not given), for which the TGI was determined as 0.0287 µM with DLD-1 colon; 0.0964 µM in the experiment with DMS 273 small cell lung; 1.1 µM with HOP-18 NSCLC; 0.278 µM in the experiment with P388/ADR leukemia; 0.022 µM in the experiment on SN12K1 renal.

With `O=c1c2cc(O)ccc2n2nnc3ccc(NCCNCCO)c1c32`, the GI50 in the experiment on DLD-1 colon is 23.9 µM and 6.6 µM. Further, the TGI was > 100 µM and 40.7 µM in the experiment with DLD-1 colon; more than 59.3 µM in the experiment on DMS 273 small cell lung; > 100 µM and 69.1 µM in the experiment with HOP-18 NSCLC.
